From PubChem BioAssay (NCI)
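1) Cells in 96-well plates. 2) Compound, 48 h, 5 concentrations. 3) Linear interpolation between surrounding doses. 4) Unreached endpoint = highest concentration. GI50: concentration for 50% inhibition of growth. Definition used: TGI = concentration required for complete inhibition of growth.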

How the values were obtained:
Experiment in all cases: inhibition of tumour cell growth, NCI panel, 48 h
HOP-92 NSCLC = test system: HOP-92 NSCLC
SK-MEL-2 melanoma = test system: SK-MEL-2 melanoma
MDA-MB-231 breast = test system: MDA-MB-231 breast
OVCAR-5 ovarian = test system: OVCAR-5 ovarian
PC-3 prostate = test system: PC-3 prostate
SF-539 CNS = test system: SF-539 CNS
LOX IMVI melanoma = test system: LOX IMVI melanoma
SR leukemia = test system: SR leukemia
U251 CNS = test system: U251 CNS
OVCAR-8 ovarian = test system: OVCAR-8 ovarian
M14 melanoma = test system: M14 melanoma
HOP-62 NSCLC = test system: HOP-62 NSCLC
HCT-116 colon = test system: HCT-116 colon
SK-OV-3 ovarian = test system: SK-OV-3 ovarian
MCF7 breast = test system: MCF7 breast
786-0 renal = test system: 786-0 renal
MDA-MB-435 = test system: MDA-MB-435
SF-268 CNS = test system: SF-268 CNS
RXF 393 renal = test system: RXF 393 renal
NCI-H522 lung = test system: NCI-H522 lung
NCI-H23 lung = test system: NCI-H23 lung
UACC-62 melanoma = test system: UACC-62 melanoma
SNB-75 CNS = test system: SNB-75 CNS
A498 renal = test system: A498 renal
A549 NSCLC = test system: A549 NSCLC
RPMI-8226 leukemia = test system: RPMI-8226 leukemia
BT-549 breast = test system: BT-549 breast
NCI-H226 lung = test system: NCI-H226 lung
CAKI-1 renal = test system: CAKI-1 renal
SK-MEL-28 melanoma = test system: SK-MEL-28 melanoma
TK-10 renal = test system: TK-10 renal
HL-60(TB) leukemia = test system: HL-60(TB) leukemia
HCT-15 colon = test system: HCT-15 colon
NCI-H460 lung = test system: NCI-H460 lung
SW-620 colon = test system: SW-620 colon
CCRF-CEM leukemia = test system: CCRF-CEM leukemia
MALME-3M melanoma = test system: MALME-3M melanoma
IGROV1 ovarian = test system: IGROV1 ovarian
K-562 leukemia = test system: K-562 leukemia
SK-MEL-5 melanoma = test system: SK-MEL-5 melanoma
SF-295 CNS = test system: SF-295 CNS
T-47D breast = test system: T-47D breast
UACC-257 melanoma = test system: UACC-257 melanoma
MOLT-4 leukemia = test system: MOLT-4 leukemia
COLO 205 colon = test system: COLO 205 colon
SNB-19 CNS = test system: SNB-19 CNS
HS 578T breast = test system: HS 578T breast
EKVX NSCLC = test system: EKVX NSCLC
HCC-2998 colon = test system: HCC-2998 colon
SN12C renal = test system: SN12C renal
OVCAR-3 ovarian = test system: OVCAR-3 ovarian
KM12 colon = test system: KM12 colon
OVCAR-4 ovarian = test system: OVCAR-4 ovarian
ACHN renal = test system: ACHN renal
HT29 colon = test system: HT29 colon
DU-145 prostate = test system: DU-145 prostate
UO-31 renal = test system: UO-31 renal
NCI/ADR-RES ovarian = test system: NCI/ADR-RES ovarian

Cc1cc2c([nH]1)CSc1cc(S(=O)(=O)c3ccccc3)c(=O)[nH]c1-2 showed a GI50 (HOP-92 NSCLC) of 139 nM, a TGI (HOP-92 NSCLC) of 1320 nM and a GI50 (SK-MEL-2 melanoma) of 1460 nM. For the same compound, the TGI (SK-MEL-2 melanoma) was over 83.2 µM, the GI50 (MDA-MB-231 breast) was 1630 nM and the TGI (MDA-MB-231 breast) was over 100 µM. The GI50 (OVCAR-5 ovarian) was 17.6 µM, the TGI (OVCAR-5 ovarian) was over 100 µM and the GI50 (PC-3 prostate) was 351 nM. The TGI (PC-3 prostate) was over 100 µM, the GI50 (SF-539 CNS) was 327 nM and the TGI (SF-539 CNS) was 1820 nM. For the same compound, the GI50 (LOX IMVI melanoma) was 610 nM, the TGI (LOX IMVI melanoma) was over 73.2 µM and the GI50 (SR leukemia) was 167 nM. The TGI (SR leukemia) was over 100 µM, the GI50 (U251 CNS) was 388 nM and the TGI (U251 CNS) was over 100 µM. The GI50 (OVCAR-8 ovarian) was 1540 nM, the TGI (OVCAR-8 ovarian) was over 100 µM and the GI50 (M14 melanoma) was 289 nM. For the same compound, the TGI (M14 melanoma) was 2160 nM, the GI50 (HOP-62 NSCLC) was 2090 nM and the TGI (HOP-62 NSCLC) was over 100 µM. For the same compound, the GI50 (HCT-116 colon) was 368 nM, the TGI (HCT-116 colon) was 10.9 µM and the GI50 (SK-OV-3 ovarian) was 21.9 µM. The TGI (SK-OV-3 ovarian) was over 100 µM, the GI50 (MCF7 breast) was 263 nM and the TGI (MCF7 breast) was 16.1 µM. The GI50 (786-0 renal) was 14.9 µM, the TGI (786-0 renal) was over 100 µM and the GI50 (MDA-MB-435) was 197 nM. It also gave a TGI (MDA-MB-435) of 460 nM, a GI50 (SF-268 CNS) of 2390 nM and a TGI (SF-268 CNS) of over 80.9 µM. For the same compound, the GI50 (RXF 393 renal) was 4.64 µM, the TGI (RXF 393 renal) was over 61.5 µM and the GI50 (NCI-H522 lung) was 3.77 µM. It also gave a TGI (NCI-H522 lung) of 36.7 µM, a GI50 (NCI-H23 lung) of 1040 nM and a TGI (NCI-H23 lung) of 60.6 µM. It also gave a GI50 (UACC-62 melanoma) of 465 nM, a TGI (UACC-62 melanoma) of over 39.6 µM and a GI50 (SNB-75 CNS) of 1560 nM. The TGI (SNB-75 CNS) was over 24 µM, the GI50 (A498 renal) was 22.1 µM and the TGI (A498 renal) was 69.7 µM. The GI50 (A549 NSCLC) was 43.8 µM, the TGI (A549 NSCLC) was over 100 µM and the GI50 (RPMI-8226 leukemia) was 806 nM. It also gave a TGI (RPMI-8226 leukemia) of over 100 µM, a GI50 (BT-549 breast) of 732 nM and a TGI (BT-549 breast) of over 74.4 µM. For the same compound, the GI50 (NCI-H226 lung) was 14.6 µM, the TGI (NCI-H226 lung) was over 88.7 µM and the GI50 (CAKI-1 renal) was 4.4 µM. It also gave a TGI (CAKI-1 renal) of over 58.4 µM, a GI50 (SK-MEL-28 melanoma) of 4.67 µM and a TGI (SK-MEL-28 melanoma) of 42.5 µM. It also gave a GI50 (TK-10 renal) of 21.7 µM, a TGI (TK-10 renal) of over 100 µM and a GI50 (HL-60(TB) leukemia) of 249 nM. The GI50 (HCT-15 colon) was 392 nM, the TGI (HCT-15 colon) was over 100 µM and the GI50 (NCI-H460 lung) was 20.6 µM. It also gave a TGI (NCI-H460 lung) of 68.5 µM, a GI50 (SW-620 colon) of 306 nM and a TGI (SW-620 colon) of over 100 µM. It also gave a GI50 (CCRF-CEM leukemia) of 452 nM, a TGI (CCRF-CEM leukemia) of over 100 µM and a GI50 (MALME-3M melanoma) of 568 nM. The TGI (MALME-3M melanoma) was 75.9 µM, the GI50 (IGROV1 ovarian) was 820 nM and the TGI (IGROV1 ovarian) was over 95.5 µM. It also gave a GI50 (K-562 leukemia) of 2560 nM, a TGI (K-562 leukemia) of over 100 µM and a GI50 (SK-MEL-5 melanoma) of 500 nM. It also gave a TGI (SK-MEL-5 melanoma) of 16.1 µM, a GI50 (SF-295 CNS) of 2400 nM and a TGI (SF-295 CNS) of 8.09 µM. The GI50 (T-47D breast) was 350 nM, the TGI (T-47D breast) was 55.1 µM and the GI50 (UACC-257 melanoma) was 17.3 µM. For the same compound, the TGI (UACC-257 melanoma) was over 100 µM, the GI50 (MOLT-4 leukemia) was 2740 nM and the TGI (MOLT-4 leukemia) was over 100 µM. For the same compound, the GI50 (COLO 205 colon) was 14.1 µM, the TGI (COLO 205 colon) was 35.2 µM and the GI50 (SNB-19 CNS) was 2160 nM. It also gave a TGI (SNB-19 CNS) of over 100 µM, a GI50 (HS 578T breast) of 1800 nM and a TGI (HS 578T breast) of 9.43 µM. For the same compound, the GI50 (EKVX NSCLC) was 21 µM, the TGI (EKVX NSCLC) was over 100 µM and the GI50 (HCC-2998 colon) was 3.42 µM. The TGI (HCC-2998 colon) was over 42.6 µM, the GI50 (SN12C renal) was 666 nM and the TGI (SN12C renal) was over 100 µM. The GI50 (OVCAR-3 ovarian) was 246 nM, the TGI (OVCAR-3 ovarian) was 615 nM and the GI50 (KM12 colon) was 461 nM. For the same compound, the TGI (KM12 colon) was 5.24 µM, the GI50 (OVCAR-4 ovarian) was 553 nM and the TGI (OVCAR-4 ovarian) was over 86.2 µM. The GI50 (ACHN renal) was 13.3 µM, the TGI (ACHN renal) was over 100 µM and the GI50 (HT29 colon) was 316 nM. The GI50 (DU-145 prostate) was 722 nM, the TGI (DU-145 prostate) was 13.2 µM and the GI50 (UO-31 renal) was 16.4 µM. For the same compound, the TGI (UO-31 renal) was over 93.6 µM, the GI50 (NCI/ADR-RES ovarian) was 445 nM and the TGI (NCI/ADR-RES ovarian) was 2170 nM.
